According to US20240209004A1, “BORIC ACID DERIVATIVE ACTING AS Beta-LACTAMASE INHIBITOR” (TUOJIE BIOTECH (SHANGHAI) CO., LTD., priority 2021, published 2024):
Values after ≈ are worked out from the molar mass of the structure shown. Structures can show the parent of a compound that is named as a salt. Where two headings read alike, the source gives them in different places.

What was measured:
[1] = test system: cefepime-resistant Klebsiella pneumoniae expressing different types of β-lactamases; experiment: microbe, parasite or virus in culture; type: cell-based; details: Klebsiella pneumoniae
Experimental: (§1) The biosafety cabinet was sterilized with ultraviolet light for 30 min. Glycerol tubes were taken out of a −80° C. freezer, and streaks were gently formed in the glycerol tubes using inoculating loops. Bacteria were inoculated onto MHIIA solid plates. The plates were incubated overnight in a 37° C. incubator.
(§2) 30 μL of compound stock solution was added to column 1 of a 96-well v-bottom plate, and DMSO was added to columns 2-10. Subsequently, 15 μL was transferred from column 1 to column 2 using a pipette and well mixed gently, and then 15 μL of solution was transferred from column 2 to column 3: the serial dilution process proceeded to column 10 (200×β-lactamase inhibitor working solutions were prepared). The antibiotic was diluted with a corresponding solvent to form a 1.6 mg/mL solution.

[2] = test system: cefepime-resistant Escherichia coli; experiment: MIC in combination with cefepime for drug-resistant bacteria (Test Example 2); type: cell-based; details: Escherichia coli, read-out: CPM MIC
Experimental: as §1
as §2, with “3;” for “3:”

[3] = test system: cefepime-resistant Klebsiella pneumoniae; experiment: as above; type: cell-based; details: Klebsiella pneumoniae, read-out: CPM MIC
Experimental: as §1
as §2, with “3;” for “3:”

[4] = test system: cefepime-resistant Pseudomonas aeruginosa; experiment: as above; type: cell-based
Experimental: as §1
as §2, with “3;” for “3:”

[5] = test system: cefepime-resistant Acinetobacter baumannii; experiment: as above; type: cell-based; details: Acinetobacter baumannii, read-out: CPM MIC
Experimental: as §1
as §2, with “3;” for “3:”

[6] = test system: Escherichia coli ATCC 25922; experiment: CPM MIC for control strain (Test Example 2); type: cell-based; details: ATCC25922; control strain Escherichia coli ATCC 25922 (printed range 0.016~0.12 μg/mL)
Experimental: as §1
as §2, with “3;” for “3:”

[7] = test system: Pseudomonas aeruginosa ATCC 27853; experiment: CPM MIC for control strain (Test Example 2); type: cell-based; details: ATCC27853; control strain Pseudomonas aeruginosa ATCC 27853 (printed range 0.5~4 μg/mL)
Experimental: as §1
as §2, with “3;” for “3:”

[8] = test system: Escherichia coli ARLG-2829 (Urine); experiment: MIC of β-lactamase inhibitors in the presence of antibiotic (Test Example 1); type: cell-based; details: in the presence of Cefepime (8 ug/mL)
Experimental: (§3) • 1) The antibiotics cefepime and biapenem (purchased from MCE Inc.).
as §1
as §2, with “two antibiotics were” for “antibiotic was”, “with” for “with a”, “solvents” for “solvent”, “form” for “form a”, “solutions.” for “solution.”
(§4) 1 μL of 200×B-lactamase inhibitor solution and 1 μL of 1.6 mg/mL antibiotic were added to a new 96-well round-bottom plate. The plate that had been incubated overnight was taken out of the incubator, and several monoclones were picked into normal saline using an inoculating loop. The bacterial solution was adjusted to a concentration of about 1.0×10^8CFU/mL and diluted 200-fold with medium, and 198 μL of the resulting bacterial solution was added to the test plate. The test plate was incubated in a 37° C.incubator for 18-24 h. The 96-well plate that had been incubated for 20 h was taken out of the incubator. The concentration that prevented visible bacterial growth was defined as the minimum inhibitory concentration.

[9] = test system: Klebsiella pneumoniae ATCC BAA-2472; experiment: as above; type: cell-based
Experimental: as §3, §1
as §2, with “two antibiotics were” for “antibiotic was”, “with” for “with a”, “solvents” for “solvent”, “form” for “form a”, “solutions.” for “solution.”
as §4

[10] = test system: Klebsiella pneumoniae ATCC BAA-1705; experiment: as above; type: cell-based
Experimental: as §3, §1
as §2, with “two antibiotics were” for “antibiotic was”, “with” for “with a”, “solvents” for “solvent”, “form” for “form a”, “solutions.” for “solution.”
as §4

[11] = Single intravenous administration exposure, pharmacokinetics (Test Example 4); type: in vivo, ICR mice; details: ICR, mouse, in vivo, iv
Experimental: The solutions were prepared on the day of administration and stored at 4° C.
Single intravenous injections were administered to ICR mice, which were grouped as follows. Blood was collected from the saphenous vein or the fundus venous plexus at 0.083 h, 0.25 h, 0.5 h, 1 h, 2 h, 4 h, 6 h and 12 h after administration (about 0.1 mL/time point). A biological analysis method was developed to determine plasma concentrations at different time points, and related pharmacokinetic parameters were calculated.

[12] = in the presence of Biapenem (8 ug/mL)
[13] = in the presence of Cefepime (8 ug/mL)

`CO/N=C(\C(=O)N[C@@H]1C(=O)N2C(C(=O)[O-])=C(C[N+]3(C)CCCC3)CS[C@H]12)c1csc(N)n1` [CPM, cefepime] gave an MIC ([1]; ATCCBAA1705, read-out: MIC, CPM, strain ATCC BAA-1705, KPC-2, TEM, SHV, Class A) of over 128 µg/mL, an MIC ([1]; ATCCBAA1705, read-out: MIC, single substance (1-1-Na, QPX7728, CPM), strain ATCC BAA-1705, KPC-2, TEM, SHV, Class A) of 64 µg/mL (≈ 133 µM) and an MIC ([1]; ATCCBAA1898, read-out: MIC, CPM, strain ATCC BAA-1898, KPC-2, Class A) of over 128 µg/mL. For the same compound, the MIC ([1]; ATCCBAA1898, read-out: MIC, single substance (1-1-Na, QPX7728, CPM), strain ATCC BAA-1898, KPC-2, Class A) was 64 µg/mL (≈ 133 µM), the MIC ([1]; ATCCBAA1899, read-out: MIC, CPM, strain ATCC BAA-1899, KPC-2, Class A) was over 128 µg/mL and the MIC ([1]; ATCCBAA1899, read-out: MIC, single substance (1-1-Na, QPX7728, CPM), strain ATCC BAA-1899, KPC-2, Class A) was 32 µg/mL (≈ 66.6 µM). The MIC ([1]; ATCCBAA2343, read-out: MIC, CPM, strain ATCC BAA-2343, KPC, Class A) was over 128 µg/mL, the MIC ([1]; ATCCBAA2343, read-out: MIC, single substance (1-1-Na, QPX7728, CPM), strain ATCC BAA-2343, KPC, Class A) was 128 µg/mL (≈ 266 µM) and the MIC ([1]; ATCCBAA2470, read-out: MIC, CPM, strain ATCC BAA-2470, NDM-1, Class B) was over 128 µg/mL. It also gave an MIC ([1]; ATCCBAA2470, read-out: MIC, single substance (1-1-Na, QPX7728, CPM), strain ATCC BAA-2470, NDM-1, Class B) of over 128 µg/mL, an MIC ([1]; read-out: MIC, CPM, strain ARLG-1127 (Urine), KPC, KPC-3, TEM, TEM-1, Class A) of over 128 µg/mL and an MIC ([1]; read-out: MIC, CPM, strain ARLG-1195, CTM-1 group, SHV, NDM, Class A, B) of over 128 µg/mL. The MIC ([1]; read-out: MIC, CPM, strain ARLG-1196, CTM-1 group, SHV, NDM, TEM, Class A, B) was 128 µg/mL (≈ 266 µM), the MIC ([1]; read-out: MIC, single substance (1-1-Na, QPX7728, CPM), strain ARLG-1127 (Urine), KPC, KPC-3, TEM, TEM-1, Class A) was over 128 µg/mL and the MIC ([1]; read-out: MIC, single substance (1-1-Na, QPX7728, CPM), strain ARLG-1195, CTM-1 group, SHV, NDM, Class A, B) was 64 µg/mL (≈ 133 µM). It also gave an MIC ([1]; read-out: MIC, single substance (1-1-Na, QPX7728, CPM), strain ARLG-1196, CTM-1 group, SHV, NDM, TEM, Class A, B) of 128 µg/mL (≈ 266 µM), an MIC ([2]; strain FDA-CDC AR-BANK#0055) of over 8 µg/mL and an MIC ([2]; strain FDA-CDC AR-BANK#0114) of over 8 µg/mL. It also gave an MIC ([2]; strain FDA-CDC AR-BANK#0370) of over 8 µg/mL, an MIC ([2]; strain FDA-CDC AR-BANK#0371) of over 8 µg/mL and an MIC ([3]; strain FDA-CDC AR-BANK#0003) of over 8 µg/mL. For the same compound, the MIC ([3]; strain FDA-CDC AR-BANK#0076) was over 8 µg/mL, the MIC ([3]; strain FDA-CDC AR-BANK#0080) was over 8 µg/mL and the MIC ([3]; strain FDA-CDC AR-BANK#0126) was over 8 µg/mL. The MIC ([3]; strain FDA-CDC AR-BANK#0158) was over 8 µg/mL, the MIC ([4]; strain FDA-CDC AR-BANK#0246, read-out: CPM MIC) was over 8 µg/mL and the MIC ([4]; strain FDA-CDC AR-BANK#0439, read-out: CPM MIC) was over 8 µg/mL. For the same compound, the MIC ([4]; strain FDA-CDC AR-BANK#0441, read-out: CPM MIC) was over 8 µg/mL, the MIC ([4]; strain FDA-CDC AR-BANK#0444, read-out: CPM MIC) was over 8 µg/mL and the MIC ([5]; strain FDA-CDC AR-BANK#0033) was over 8 µg/mL. It also gave an MIC ([5]; strain FDA-CDC AR-BANK#0035) of over 8 µg/mL, an MIC ([5]; strain FDA-CDC AR-BANK#0078) of over 8 µg/mL and an MIC [6] of 0.0156 µg/mL (≈ 0.0325 µM). For the same compound, the MIC [7] was 1 µg/mL (≈ 2.08 µM).
`O=C(O)c1c2c(cc3c1OB(O)C1CC31)OCCO2` (centres unmarked) [Compound 1] showed a Minimum inhibitory concentration [8] of 0.5 µg/mL, a Minimum inhibitory concentration [9, 12] of 4 µg/mL and a Minimum inhibitory concentration [9, 13] of 16 µg/mL. For the same compound, the Minimum inhibitory concentration [10, 12] was at most 0.03125 µg/mL and the Minimum inhibitory concentration [10, 13] was 0.5 µg/mL.
For `O=C(O)c1c2c(cc3c1OB(O)C1CC31)OC(F)(F)O2` (centres unmarked) [Compound 2], the Minimum inhibitory concentration [8] was over 16 µg/mL, the Minimum inhibitory concentration [9, 12] was over 16 µg/mL and the Minimum inhibitory concentration [9, 13] was over 16 µg/mL. The Minimum inhibitory concentration [10, 12] was 1 µg/mL and the Minimum inhibitory concentration [10, 13] was over 16 µg/mL.
Work on `O=C(O)c1c(F)ccc2c1OB(O)[C@@H]1C[C@H]21` [QPX7728 disodium salt] yielded an AUC(0-inf) ([11]; 10 mg/kg) of 46 µg·h/mL, an AUC(0-t) ([11]; 10 mg/kg) of 44.7 µg·h/mL and a Cmax ([11]; 10 mg/kg) of 65.8 µg/mL. For the same compound, the Tmax ([11]; 10 mg/kg) was 4.98 min, the t½z ([11]; 10 mg/kg) was 174 min and the AUC(0-inf) ([11]; 100 mg/kg) was 300 µg·h/mL. It also gave an AUC(0-t) ([11]; 100 mg/kg) of 297 µg·h/mL, a Cmax ([11]; 100 mg/kg) of 399 µg/mL and a Tmax ([11]; 100 mg/kg) of 4.98 min. It also gave a t½z ([11]; 100 mg/kg) of 126 min.
Work on `NCCN[C@H]1CC[C@H](CC(=O)N[C@H]2Cc3cccc(C(=O)O)c3OB2O)CC1` [VNRX-5133] yielded a Minimum inhibitory concentration [8] of 2 µg/mL, a Minimum inhibitory concentration [9, 12] of 2 µg/mL and a Minimum inhibitory concentration [9, 13] of over 16 µg/mL. The Minimum inhibitory concentration [10, 12] was at most 0.03125 µg/mL and the Minimum inhibitory concentration [10, 13] was 0.25 µg/mL.
